Data on 21 compounds can be found in patent US20170088520A1, “DEUBIQUITINASE INHIBITORS” (PharmAkea, Inc., priority 2014, published 2017).

Common to all, as to assay type: cell-based
In assay [1] the test system is PARP cleavage in cells (NCI-H929, Z138, MM.1S, A-375). The assay can be described thus: Analysis of PARP cleavage by Western blotting. The conditions noted are these: compound tested at 5 μM; Western blot. The procedure:
(§1) Example B-2: Analysis of Md-1 Expression and PARP Cleavage
(§2) The ability of test compounds to decrease expression of the tumor promoting protein, Mcl-1, and to induce the inactivation/cleavage of the PARP protein is evaluated in cells (NCI-H929, Z138, MM.1S, A-375) by Western blotting. Cells are plated and treated as described in the HA-Ub-VS cell labeling assay (see above). A portion of the cleared lysate (15-50 μl) is run on an SDS-polyacrylamide gel to separate proteins and then transferred to nitrocellulose. After transfer to nitrocellulose, the proteins are detected by probing the blot with anti-Mcl-1 and anti-PARP antibodies followed by secondary antibodies coupled to IRdye 800 and IRdye 680 and visualization and quantitation using a LiCor Odyssey machine. Activity of the test compound is identified as a significant decrease in Mcl-1 expression relative to the vehicle treated cells and to the appearance of a cleaved fragment of PARP relative to the vehicle-treated cells.
(§3) The following compounds were tested in the above assays at 5 μM: […]
In general terms: In western blotting, separated proteins are transferred to a membrane and probed.

Assay [2] concerns the target T1, DUB activity in cells (NCI-H929, Z138, MM.1S, A375) (Homo sapiens, UniProt Q93008).
T1 construct: endogenous in cells; host or cells: NCI-H929, Z138, MM.1S, A375
The assay can be described thus: HA-Ubiquitin-Vinylsulfone (HA-Ub-VS) cell labeling assay. The conditions noted are these: compound tested at 5 μM; HA-Ub-VS labeling of USP9x in cells. The procedure:
Example B-1: HA-Ubiqutin-Vinylsulfone (HA-Ub-VS) Cell Labeling
Inhibitition of DUB activity is measured in cells (NCI-H929, Z138, MM.1S, A375) using a hemaglutinin-ubiquitin-vinylsulfone (HA-Ub-VS) labeling assay. Briefly, 1-2×10^6 cells are plated in 12-well plates in 1 ml complete growth media and 250 μl of test compound in 0.5% dimethylsulfoxide (or DMSO control) is added to each well. Plates are incubated at 37° C., 5% CO2 for 2-6 hours before cells are harvested into eppendorf tubes, washed once in PBS and resuspended in 100 μl cold lysis buffer (50 mM Tris pH 8, 150 mM NaCl, 0.5% NP-40, 2 mM phenylmethylsulfonyl fluoride and complete protease inhibitor tablet). Resupended cells are frozen on dry ice, then thawed and incubated on ice for 15 minutes. Tubes are centrifuged for 10 minutes at 14,000 rpm at 4° C. and the cleared supernatants transferred to clean tubes. […] The samples are incubated 15-60 min at 37° C. before the addition of SDS gel loading buffer. Proteins are separated by SDS-PAGE, transferred to nitrocellulose and the blot probed with anti-HA antibody and anti-β-actin antibodies. The HA and β-actin antibodies are detected using secondary antibodies coupled to IRdye 800 or IRdye 680 and visualized and quantitated using the LiCor Odyssey machine.
as §3

Assay [3] relates to Mcl-1 expression in cells (NCI-H929, Z138, MM.1S, A-375). The assay can be described thus: Analysis of Mcl-1 expression by Western blotting. To be noted: compound tested at 5 μM; Western blot. The procedure:
as §1, §2, §3

T1 sequence (Q93008 whole entry): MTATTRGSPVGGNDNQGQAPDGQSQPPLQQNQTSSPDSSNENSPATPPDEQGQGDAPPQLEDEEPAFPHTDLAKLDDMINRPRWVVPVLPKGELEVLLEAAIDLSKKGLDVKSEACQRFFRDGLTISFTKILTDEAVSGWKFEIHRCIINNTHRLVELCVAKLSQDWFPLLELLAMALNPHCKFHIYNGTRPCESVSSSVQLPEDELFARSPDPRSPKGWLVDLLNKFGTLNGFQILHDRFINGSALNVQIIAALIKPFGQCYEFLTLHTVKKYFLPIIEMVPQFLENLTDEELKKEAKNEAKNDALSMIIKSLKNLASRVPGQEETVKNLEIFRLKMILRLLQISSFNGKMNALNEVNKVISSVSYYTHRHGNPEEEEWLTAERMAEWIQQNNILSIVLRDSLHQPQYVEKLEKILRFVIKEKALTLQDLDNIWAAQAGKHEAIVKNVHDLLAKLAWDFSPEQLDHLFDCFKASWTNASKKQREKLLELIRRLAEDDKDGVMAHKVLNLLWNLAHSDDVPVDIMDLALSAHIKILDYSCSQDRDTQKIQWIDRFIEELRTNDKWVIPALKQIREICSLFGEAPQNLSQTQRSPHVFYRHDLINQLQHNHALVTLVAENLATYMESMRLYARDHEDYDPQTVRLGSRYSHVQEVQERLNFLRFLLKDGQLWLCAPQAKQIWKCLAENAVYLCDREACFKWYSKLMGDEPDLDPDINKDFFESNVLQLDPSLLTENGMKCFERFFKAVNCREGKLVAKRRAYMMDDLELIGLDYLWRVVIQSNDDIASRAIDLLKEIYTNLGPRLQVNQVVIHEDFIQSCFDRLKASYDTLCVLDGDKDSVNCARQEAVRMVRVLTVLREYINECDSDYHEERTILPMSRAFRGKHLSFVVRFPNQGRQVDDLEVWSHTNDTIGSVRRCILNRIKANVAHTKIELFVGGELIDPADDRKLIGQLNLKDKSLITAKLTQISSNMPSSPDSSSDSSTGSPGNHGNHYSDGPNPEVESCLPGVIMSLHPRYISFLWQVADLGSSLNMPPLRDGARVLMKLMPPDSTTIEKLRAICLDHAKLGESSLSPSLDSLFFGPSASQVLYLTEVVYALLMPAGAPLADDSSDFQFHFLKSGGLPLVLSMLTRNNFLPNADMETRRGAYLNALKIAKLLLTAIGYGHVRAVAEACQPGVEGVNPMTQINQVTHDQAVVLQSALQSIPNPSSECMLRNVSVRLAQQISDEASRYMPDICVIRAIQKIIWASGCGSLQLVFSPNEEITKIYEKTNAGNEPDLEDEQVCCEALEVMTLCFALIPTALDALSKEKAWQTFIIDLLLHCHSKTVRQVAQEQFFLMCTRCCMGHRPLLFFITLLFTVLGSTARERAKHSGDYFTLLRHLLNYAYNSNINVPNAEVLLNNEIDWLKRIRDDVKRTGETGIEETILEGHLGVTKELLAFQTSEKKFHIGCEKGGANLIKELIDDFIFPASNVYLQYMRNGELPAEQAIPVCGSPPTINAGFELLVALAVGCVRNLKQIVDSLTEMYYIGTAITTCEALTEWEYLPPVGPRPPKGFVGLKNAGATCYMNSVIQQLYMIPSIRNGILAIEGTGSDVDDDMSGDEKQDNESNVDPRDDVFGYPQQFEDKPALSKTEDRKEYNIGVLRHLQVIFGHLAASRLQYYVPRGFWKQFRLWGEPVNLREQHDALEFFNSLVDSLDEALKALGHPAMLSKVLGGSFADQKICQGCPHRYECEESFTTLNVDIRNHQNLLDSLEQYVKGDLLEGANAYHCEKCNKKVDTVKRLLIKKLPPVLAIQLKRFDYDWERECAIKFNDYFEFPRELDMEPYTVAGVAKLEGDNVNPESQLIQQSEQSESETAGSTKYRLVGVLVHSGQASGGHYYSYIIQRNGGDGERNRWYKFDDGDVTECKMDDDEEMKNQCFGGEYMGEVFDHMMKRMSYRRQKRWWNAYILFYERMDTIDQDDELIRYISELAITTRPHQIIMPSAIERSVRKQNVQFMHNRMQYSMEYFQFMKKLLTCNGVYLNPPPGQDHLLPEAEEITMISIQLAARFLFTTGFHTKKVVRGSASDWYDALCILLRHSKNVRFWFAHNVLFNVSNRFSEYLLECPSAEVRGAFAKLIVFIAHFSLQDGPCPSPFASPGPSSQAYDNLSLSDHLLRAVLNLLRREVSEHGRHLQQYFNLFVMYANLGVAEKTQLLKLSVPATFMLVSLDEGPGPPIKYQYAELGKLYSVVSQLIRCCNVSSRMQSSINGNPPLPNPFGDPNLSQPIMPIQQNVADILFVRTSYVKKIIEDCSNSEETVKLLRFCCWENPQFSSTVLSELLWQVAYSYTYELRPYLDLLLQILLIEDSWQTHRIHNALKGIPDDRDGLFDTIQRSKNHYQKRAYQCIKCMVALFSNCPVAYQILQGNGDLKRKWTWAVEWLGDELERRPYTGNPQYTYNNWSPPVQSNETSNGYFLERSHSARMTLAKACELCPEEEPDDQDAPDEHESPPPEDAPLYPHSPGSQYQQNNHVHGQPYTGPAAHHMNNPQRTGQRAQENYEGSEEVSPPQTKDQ

Regarding `N#C/C(=C\c1cccc(Br)n1)C(=O)NC1(c2ccnc(Cl)c2)CCCC1` [Compound 3-6, (E)-3-(6-bromopyridin-2-yl)-N-(1-(2-chloropyridin-4-yl)cyclopentyl)-2-cyanoacrylamide], in assay [1], the “PARP cleavage % Inhibition” value is on record as “A (A is ≧75% inhibition)”. Moreover, the inhibition at 5 µM in assay [2] and in assay [3] was 50 to 75% each time.

Take `CN(C)C(=O)c1ccc(C2(NC(=O)/C(C#N)=C/c3ncc(Br)cc3Br)CCCC2)cc1` [Compound 66, (E)-4-(1-(2-cyano-3-(3,5-dibromopyridin-2-yl)acrylamido)cyclopentyl)-N,N-dimethylbenzamide]: in assay [1], the “PARP cleavage % Inhibition” value is listed as “A (A is ≧75% inhibition)”. Further, the inhibition at 5 µM in assay [2] is 50 to 75%; in assay [3] it was ≥ 75%.

With `N#C/C(=C\c1ncccc1Br)C(=O)NC1(c2ccccc2)CCCC1` [Compound 46, (E)-3-(3-bromopyridin-2-yl)-2-cyano-N-(1-phenylcyclopentyl)acrylamide], the “PARP cleavage % Inhibition” value in assay [1] is listed as “A (A is ≧75% inhibition)”. For the same compound, the inhibition at 5 µM in assay [2] and in assay [3] was 50 to 75% each time.

As for `N#C/C(=C\c1cccc(Br)n1)C(=O)NC1(c2ccccc2)CCCCC1` [Compound 17, (E)-3-(6-Bromopyridin-2-yl)-2-cyano-N-(1-phenylcyclohexyl)acrylamide], in assay [1], the “PARP cleavage % Inhibition” value is “A (A is ≧75% inhibition)”. In addition, the inhibition at 5 µM in assay [2] was 25 to 50%; in assay [3], 50 to 75%.

`N#C/C(=C\c1ncc(Br)cc1Br)C(=O)NC1(c2ccc(F)cc2)CCCC1` [Compound 21, (E)-2-Cyano-3-(3,5-dibromopyridin-2-yl)-N-(1-(4-fluorophenyl)cyclopentyl)acrylamide]: in assay [1], the “PARP cleavage % Inhibition” value is “A (A is ≧75% inhibition)”. Moreover, the inhibition at 5 µM in assay [2] and in assay [3] was ≥ 75% in each case.

For the compound `N#C/C(=C\c1ncc(Br)cc1F)C(=O)NC1(c2ccccc2)CCCC1` [Compound 9, (E)-3-(5-Bromo-3-fluoropyridin-2-yl)-2-cyano-N-(1-phenylcyclopentyl)acrylamide], the “PARP cleavage % Inhibition” value in assay [1] is on record as “A (A is ≧75% inhibition)”. The inhibition at 5 µM in assay [2] and in assay [3] was ≥ 75% in each case.

Take `CCOC(=O)c1cccc(-c2cccc(/C=C(\C#N)C(=O)NC3(c4ccccc4)CCCC3)n2)c1F` [Compound 60]: the “PARP cleavage % Inhibition” value in assay [1] is recorded as “A (A is ≧75% inhibition)”. Further, the inhibition at 5 µM in assay [2] was 50 to 75%; in assay [3], ≥ 75%.

Take `COC(=O)c1ccc(C2(NC(=O)/C(C#N)=C/c3cccc(Br)n3)CCCC2)cc1` [Compound 41, (E)-methyl 4-(1-(3-(6-bromopyridin-2-yl)-2-cyanoacrylamido)cyclopentyl)benzoate]: in assay [1], the “PARP cleavage % Inhibition” value is recorded as “A (A is ≧75% inhibition)”. Also, the figures for the inhibition at 5 µM in assay [2] and in assay [3] were 50 to 75% and ≥ 75%, respectively.

With `CCOc1ncc(C(F)(F)F)cc1-c1ccc(C2(NC(=O)/C(C#N)=C/c3ncc(Br)cc3Br)CCCC2)cc1` [Compound 54, (E)-2-cyano-3-(3,5-dibromopyridin-2-yl)-N-(1-(4-(2-ethoxy-5-(trifluoromethyl)pyridin-3-yl)phenyl)cyclopentyl)acrylamide], the “PARP cleavage % Inhibition” value in assay [1] is “C (C is 25% to 50% inhibition)”. Also, the inhibition at 5 µM in assay [2] and in assay [3] was < 25% in each case.

`N#C/C(=C\c1cccc(-c2cccnc2)n1)C(=O)NC1(c2ccccc2)CCCC1` [Compound 30, (E)-3-([2,3′-bipyridin]-6-yl)-2-cyano-N-(1-phenylcyclopentyl)acrylamide]: the “PARP cleavage % Inhibition” value in assay [1] is on record as “A (A is ≧75% inhibition)”. Also, the inhibition at 5 µM in assay [2] and in assay [3] was 25 to 50% in each case.

For the compound `N#C/C(=C\c1nc(Br)ccc1F)C(=O)NC1(c2ccccc2)CCCC1` [Compound 6, (E)-3-(3-Fluoro-6-bromopyridin-2-yl)-2-cyano-N-(1-phenylcyclopentyl)acrylamide], the “PARP cleavage % Inhibition” value in assay [1] was “A (A is ≧75% inhibition)”. In addition, the inhibition at 5 µM in assay [2] and in assay [3] was ≥ 75% in each case.

As to `N#C/C(=C\c1cccc(Br)n1)C(=O)NC1(c2ccnc(F)c2)CCCC1` [Compound 3-7, (E)-3-(6-bromopyridin-2-yl)-2-cyano-N-(1-(2-fluoropyridin-4-yl)cyclopentyl)acrylamide], in assay [1], the “PARP cleavage % Inhibition” value is “B (B is 50% to 75% inhibition)”. The inhibition at 5 µM is 25 to 50% in assay [2] and < 25% in assay [3].

As for `COC(=O)c1ccc(-c2ccc(C3(NC(=O)/C(C#N)=C/c4ncc(Br)cc4Br)CCCC3)cc2)cn1` [Compound 37, (E)-methyl 5-(4-(1-(2-cyano-3-(3,5-dibromopyridin-2-yl)acrylamido)cyclopentyl)phenyl)picolinate], the “PARP cleavage % Inhibition” value in assay [1] is reported as “B (B is 50% to 75% inhibition)”. Besides, the inhibition at 5 µM in assay [2] and in assay [3] was 50 to 75% throughout.

For `CCOC(=O)c1ccc(-c2ccc(C3(NC(=O)/C(C#N)=C/c4ncc(Br)cc4Br)CCCC3)cc2)cc1` [Compound 32, (E)-ethyl 4′-(1-(2-cyano-3-(3,5-dibromopyridin-2-yl)acrylamido)cyclopentyl)-[1,1′-biphenyl]-4-carboxylate], the “PARP cleavage % Inhibition” value in assay [1] was “D (D is <25% inhibition)”. Moreover, the inhibition at 5 µM in assay [2] and in assay [3] was < 25% in each case.

For `CCCCCCCCCCCCCC(=O)OCc1ccc(C2(NC(=O)/C(C#N)=C/c3cccc(Br)n3)CCCC2)cc1` [Compound 84, (E)-4-(1-(3-(6-bromopyridin-2-yl)-2-cyanoacrylamido)cyclopentyl)benzyl tetradecanoate], the “PARP cleavage % Inhibition” value in assay [1] was “D (D is <25% inhibition)”. In addition, the inhibition at 5 µM in assay [2] and in assay [3] was < 25% in each case.

For the compound `N#C/C(=C\c1cccc(Br)n1)C(=O)NC1(c2ccccc2)CC1` [Compound 2, (E)-3-(6-Bromopyridin-2-yl)-2-cyano-N-(1-phenylcyclopropyl)acrylamide], the “PARP cleavage % Inhibition” value in assay [1] is recorded as “C (C is 25% to 50% inhibition)”. The inhibition at 5 µM in assay [2] and in assay [3] was < 25% throughout.

With `N#C/C(=C\c1ncccc1F)C(=O)NC1(c2ccccc2)CCCC1` [Compound 8, (E)-3-(3-Fluoropyridin-2-yl)-2-cyano-N-(1-phenylcyclopentyl)acrylamide], in assay [1], the “PARP cleavage % Inhibition” value is “D (D is <25% inhibition)”. For the same compound, the inhibition at 5 µM in assay [2] and in assay [3] was < 25% throughout.

With `Cc1ccc(-c2ccc(C3(NC(=O)/C(C#N)=C/c4cccc(Br)n4)CCCC3)cc2)cc1CC(=O)O` [Compound 98, (E)-2-(4′-(1-(3-(6-bromopyridin-2-yl)-2-cyanoacrylamido)cyclopentyl)-4-methyl-[1,1′-biphenyl]-3-yl)acetic acid], the “PARP cleavage % Inhibition” value in assay [1] is “D (D is <25% inhibition)”. Moreover, the inhibition at 5 µM in assay [2] and in assay [3] was < 25% throughout.

On to `N#C/C(=C\c1nc(Cl)ccc1Br)C(=O)NC1(c2ccccc2)CCCC1` [Compound 10, (E)-3-(3-Bromo-6-chloropyridin-2-yl)-2-cyano-N-(1-phenylcyclopentyl)acrylamide], for which the “PARP cleavage % Inhibition” value in assay [1] was “B (B is 50% to 75% inhibition)”. Also, the figures for the inhibition at 5 µM in assay [2] and in assay [3] were 50 to 75% and ≥ 75%, respectively.

For the compound `CC(C)(C)c1ccc(C2(NC(=O)/C(C#N)=C/c3ncc(Br)cc3Br)CCCC2)cc1` [Compound 27, (E)-N-(1-(4-(tert-butyl)phenyl)cyclopentyl)-2-cyano-3-(3,5-dibromopyridin-2-yl)acrylamide], the “PARP cleavage % Inhibition” value in assay [1] is on record as “A (A is ≧75% inhibition)”. For the same compound, the inhibition at 5 µM in assay [2] and in assay [3] was ≥ 75% each time.

For `N#C/C(=C\c1cccc(-c2cnc3[nH]ccc3c2)n1)C(=O)NC1(c2ccccc2)CCCC1` [Compound 61, (E)-3-(6-(1H-pyrrolo[2,3-b]pyridin-5-yl)pyridin-2-yl)-2-cyano-N-(1-phenylcyclopentyl)acrylamide], in assay [1], the “PARP cleavage % Inhibition” value is reported as “B (B is 50% to 75% inhibition)”. Also, the inhibition at 5 µM in assay [2] and in assay [3] was < 25% in each case.

As usually defined, the inhibition is the drop in the measured response relative to a control, in per cent. Higher therefore signals strong suppression.
